Target: T1, GST-human KRas166 (G12V) GPPNHP (Homo sapiens, UniProt P01116, G12V)
T1 construct: made in house; host or cells: E. coli C41(DE3)
Experiment: KRas small-molecule screening by SPR (Biacore T200)
Assay type: binding
Conditions: compound 100 uM, 5% DMSO buffer; immobilised GST-KRas166 (G12V) GPPNHP
How it was run: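 GST-KRas166 G12V loaded with GPPNHP, captured on anti-GST CM5 chip at 10,000–15,000 RU, GST reference channel. Compounds run at 100 uM in buffer with 100 mM NaCl, 5 mM MgCl2, 5% DMSO, with DMSO solvent correction; Rmax for 1:1 binding taken as 63 RU.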

SMILES | SPR Response Units [Response Units]
COc1nc(-c2cccc3c2OCCO3)ccc1Nc1ccc(CN(C)C)cc1 [compound 56, [6-(2,3-Dihydro-benzo[1,4]dioxin-5-yl)-2-methoxy-pyridin-3-yl]-(4-dimethylaminomethyl-phenyl)-amine] | 116
COc1cc(-c2cccc3c2OCCO3)ccc1Nc1cccc(CN(C)C)c1.O=CO [compound 72, [4-(2,3-Dihydro-benzo[1,4]dioxin-5-yl)-2-methoxy-phenyl]-(3-dimethylaminomethyl-phenyl)-amine formate salt] | 56

Source: patent publication US12024506B2, “Compounds” (Oxford University Innovation Limited, priority 2018, dated 2024)
